Measurements as given in patent US4322428A, “2(4-Fluorophenyl)-4,5,-bis(4-methoxyphenyl)thiazole and method of use” (Eli Lilly and Company, priority 1980, dated 1982).

System: writhing in Cox standard strain albino male mice
Assay: mouse-writhing test (analgesic), acetic acid-induced writhing
Assay type: in vivo
Conditions: oral (p.o.), corn oil-acacia emulsion, writhing induced by intraperitoneal 0.55% (55 mg/kg) acetic acid, read-out: ED50 (effective dosage needed to inhibit 50% of the writhing)
Procedure: An intraperitoneal injection of 0.55% (55 mg/kg.) acetic acid induces writhing in the mice, which is characterized by contraction of the abdominal musculature, extension of the hindlegs, and rotation of the trunk. The compounds were administered in a corn oil-acacia emulsion. The number of writhes is counted for both the control and treated animals and the percent inhibition computed as follows: [formula]
All dosages were given orally (p.o.) and are expressed in mg/kg. The term "ED50 " means an effective dosage needed to inhibit 50% of the writhing.

Row | Compound | ED50 [mg/kg]
1 | COc1ccc(-c2nc(-c3ccc(Br)cc3)sc2-c2ccc(OC)cc2)cc1 [2-(4-Bromophenyl)-4,5-bis(4-methoxyphenyl)thiazole] | 1.46
2 | COc1ccc(-c2nc(-c3ccc(Cl)cc3)sc2-c2ccc(OC)cc2)cc1 [2-(4-Chlorophenyl)-4,5-bis(4-methoxyphenyl)thiazole] | 3.75
3 | COc1ccc(-c2nc(-c3ccc(F)cc3)sc2-c2ccc(OC)cc2)cc1 [2-(4-Fluorophenyl)-4,5-bis(4-methoxyphenyl)thiazole] | 0.82
4 | COc1ccc(-c2nc(-c3ccccc3)sc2-c2ccc(OC)cc2)cc1 [2-Phenyl-4,5-bis(4-methoxyphenyl)thiazole] | 2.3
